In patent US8592407B2, “Pyrrolo[2,1-c][1,4] benzodiazepine derivatives with dithiocarbamate side chains and process for the preparation thereof” (Council of Scientific & Industrial Research, priority 2008, dated 2013):

Assays:
[1] = system: MOLT-4; assay: NCI in vitro cytotoxicity (SRB); format: cell-based; conditions: Homo sapiens
[2] = system: sixty human tumour cell lines; conditions: mean over human tumour cell lines
Description: For each compound, dose response curves for each cell line were measured at a minimum of five concentrations at 10 fold dilutions. A protocol of 48 h continuous drug exposure was used and a sulforhodamine B (SRB) protein assay was used to estimate cell viability or growth. The concentration causing 50% cell growth inhibition (G150), total cell growth inhibition (TGI 0% growth) and 50% cell death (LC50, −50% growth) compared with the control was calculated.

[3] = system: CNS panel; assay: NCI screen, panel average; format: cell-based, human; conditions: for Log10 GI50 (concentration in mol/L): CNS, average of six to eight cell lines; for LC50: Homo sapiens, read-out: Log10 LC50 (concentration in mol/L causing 50% lethality) (converted)
[4] = system: OVCAR-8; assay: NCI in vitro cytotoxicity (SRB); format: cell-based; conditions: Homo sapiens
[5] = system: UACC-257; assay: NCI in vitro cytotoxicity (SRB); format: cell-based; conditions: Homo sapiens; Melanoma UACC-257; 48 h exposure
[6] = system: HCT-15; assay: NCI in vitro cytotoxicity (SRB); format: cell-based; conditions: Homo sapiens; Colon HCT-15; 48 h exposure
[7] = system: SNB-75; assay: NCI in vitro cytotoxicity (SRB); format: cell-based; conditions: Homo sapiens; CNS SNB-75; 48 h exposure
[8] = system: KM12; assay: NCI in vitro cytotoxicity (SRB); format: cell-based; conditions: Homo sapiens; Colon KM12; 48 h exposure
[9] = system: CCRF-CEM; assay: NCI in vitro cytotoxicity (SRB); format: cell-based; conditions: Homo sapiens; Leukemia CCRF-CEM; 48 h exposure
[10] = system: A549/ATCC; assay: NCI in vitro cytotoxicity (SRB); format: cell-based; conditions: Homo sapiens; Non-smallcell lung A549/ATCC; 48 h exposure
[11] = system: SK-MEL-5; assay: NCI in vitro cytotoxicity (SRB); format: cell-based; conditions: Homo sapiens; Melanoma SK-MEL-5; 48 h exposure
[12] = system: OVCAR-5; assay: NCI in vitro cytotoxicity (SRB); format: cell-based; conditions: Homo sapiens; Ovarian OVCAR-5; 48 h exposure
[13] = system: U251; assay: NCI in vitro cytotoxicity (SRB); format: cell-based; conditions: Homo sapiens, U-251; CNS U251; 48 h exposure
[14] = system: HT29; assay: NCI in vitro cytotoxicity (SRB); format: cell-based; conditions: Homo sapiens, HT-29; Colon HT29; 48 h exposure
[15] = system: SNB-19; assay: NCI in vitro cytotoxicity (SRB); format: cell-based; conditions: Homo sapiens; CNS SNB-19; 48 h exposure
[16] = system: Renal panel; assay: NCI screen, panel average; format: cell-based, human; conditions: for LC50 (concentration causing 50% lethality): Homo sapiens, read-out: Log10 LC50 (concentration in mol/L causing 50% lethality) (converted); for Log10 GI50 (concentration in mol/L): Renal, average of six to eight cell lines
[17] = system: MCF7; assay: NCI in vitro cytotoxicity (SRB); format: cell-based; conditions: Homo sapiens
[18] = system: Colon panel; assay: NCI screen, panel average; format: cell-based, human; conditions: for Log10 GI50 (concentration in mol/L): Colon, average of six to eight cell lines; for LC50: Homo sapiens, read-out: Log10 LC50 (concentration in mol/L causing 50% lethality) (converted)
[19] = system: SN12C; assay: NCI in vitro cytotoxicity (SRB); format: cell-based; conditions: Homo sapiens; Renal SN12C; 48 h exposure
[20] = system: SW-620; assay: NCI in vitro cytotoxicity (SRB); format: cell-based; conditions: Homo sapiens
[21] = system: RPMI-8226; assay: NCI in vitro cytotoxicity (SRB); format: cell-based; conditions: Homo sapiens; Leukemia RPMI-8226; 48 h exposure
[22] = system: NCI-H322M; assay: NCI in vitro cytotoxicity (SRB); format: cell-based; conditions: Homo sapiens; Non-smallcell lung NCI-H322M; 48 h exposure
[23] = system: A498; assay: NCI in vitro cytotoxicity (SRB); format: cell-based; conditions: Homo sapiens; Renal A498; 48 h exposure
[24] = system: MDA-MB-468; assay: NCI in vitro cytotoxicity (SRB); format: cell-based; conditions: Homo sapiens
[25] = system: EKVX; assay: NCI in vitro cytotoxicity (SRB); format: cell-based; conditions: Homo sapiens; Non-smallcell lung EKVX; 48 h exposure
[26] = system: SF-268; assay: NCI in vitro cytotoxicity (SRB); format: cell-based; conditions: Homo sapiens
[27] = system: CAKI-1; assay: NCI in vitro cytotoxicity (SRB); format: cell-based; conditions: Homo sapiens; Renal CAKI-1; 48 h exposure
[28] = system: OVCAR-4; assay: NCI in vitro cytotoxicity (SRB); format: cell-based; conditions: Homo sapiens; Ovarian OVCAR-4; 48 h exposure
[29] = system: SK-MEL-2; assay: NCI in vitro cytotoxicity (SRB); format: cell-based; conditions: Homo sapiens; Melanoma SK-MEL-2; 48 h exposure
[30] = system: NCI-H522; assay: NCI in vitro cytotoxicity (SRB); format: cell-based; conditions: Homo sapiens
[31] = system: HCC-2998; assay: NCI in vitro cytotoxicity (SRB); format: cell-based; conditions: Homo sapiens; Colon HCC-2998; 48 h exposure
[32] = system: RXF 393; assay: NCI in vitro cytotoxicity (SRB); format: cell-based; conditions: Homo sapiens; Renal RXF 393; 48 h exposure
[33] = system: NCI-H226; assay: NCI in vitro cytotoxicity (SRB); format: cell-based; conditions: Homo sapiens; Non-smallcell lung NCI-H226; 48 h exposure
[34] = system: SK-MEL-28; assay: NCI in vitro cytotoxicity (SRB); format: cell-based; conditions: Homo sapiens; Melanoma SK-MEL-28; 48 h exposure
[35] = system: Non-small-cell-lung panel; assay: NCI screen, panel average; format: cell-based, human; conditions: for LC50: Homo sapiens, read-out: Log10 LC50 (concentration in mol/L causing 50% lethality) (converted); for Log10 GI50 (concentration in mol/L): Non-small-cell-lung, average of six to eight cell lines
[36] = system: UO-31; assay: NCI in vitro cytotoxicity (SRB); format: cell-based; conditions: Homo sapiens; Renal UO-31; 48 h exposure
[37] = system: BT-549; assay: NCI in vitro cytotoxicity (SRB); format: cell-based; conditions: Homo sapiens; Breast BT-549; 48 h exposure
[38] = system: HCT-116; assay: NCI in vitro cytotoxicity (SRB); format: cell-based; conditions: Homo sapiens
[39] = system: Prostate panel; assay: NCI screen, panel average; format: cell-based, human; conditions: for CC50: Homo sapiens, read-out: Log10 LC50 (concentration in mol/L causing 50% lethality) (converted); for Log10 GI50 (concentration in mol/L): Prostate, average of six to eight cell lines
[40] = Breast MDA-MB-468, 48 h exposure
[41] = Non-smallcell lung NCI-H522, 48 h exposure

## COc1cc2c(cc1OCCCN1CCN(C(=S)SCCC(C#N)(c3ccccc3)c3ccccc3)CC1)N=C[C@@H]1CCCN1C2=O [Compound 12b, 3-cyano-3,3-diphenylpropyl 4-(3-[(11aS)-7-(methyloxy)-5-oxo-2,3,5,11a-tetrahydro-1H-benzo[e]pyrrolo[1,2-a][1,4]diazepin-8-yl]oxypropyl)hexahydro-1-pyrazinecarbodithioate]
[1]; Leukemia MOLT-4, 48 h exposure
  GI50: 220 nM
[1]; leukemia MOLT-4
  GI50: 220 nM
[2]
  Log10GI50 mean graph midpoint (MG_MID): −6.15
  Log10LC50 mean graph midpoint (MG_MID): −4.96
  Log10TGI mean graph midpoint (MG_MID): −5.67
[3]
  Log10 GI50 (concentration in mol/L): −6.12 mol/L
  LC50: 4.47 µM
[4]; Ovarian OVCAR-8, 48 h exposure
  GI50: 990 nM
[4]; ovarian OVCAR-8
  GI50: 990 nM
[5]
  GI50: 2000 nM
[6]
  GI50: 1810 nM
[7]
  GI50: 1260 nM
[8]
  GI50: 1070 nM
[9]
  GI50: 230 nM
[10]
  GI50: 1220 nM
[11]
  GI50: 1180 nM
[12]
  GI50: 1350 nM
[13]
  GI50: 390 nM
[14]
  GI50: 870 nM
[15]
  GI50: 1230 nM
[16]
  LC50 (concentration causing 50% lethality): 4.07 µM
  Log10 GI50 (concentration in mol/L): −6.20 mol/L
[17]; MCF7, breast MCF-7
  GI50: 330 nM
[17]; Breast MCF7, 48 h exposure
  GI50: 330 nM
[18]
  Log10 GI50 (concentration in mol/L): −6.02 mol/L
  LC50: 8.51 µM
[19]
  GI50: 640 nM
[20]; Colon SW-620, 48 h exposure
  GI50: 510 nM
[20]; colon cancer SW-620
  GI50: 510 nM
[21]
  GI50: 220 nM
[22]
  GI50: 1870 nM
[23]
  GI50: 910 nM
[24]; MDA-MB-468, breast MDA-MEI-468
  GI50: 280 nM
[24]; [40]
  GI50: 280 nM
[25]
  GI50: 2290 nM
[26]; SF-268, CNS SF268
  GI50: 280 nM
[26]; CNS SF-268, 48 h exposure
  GI50: 280 nM
[27]
  GI50: 300 nM
[28]
  GI50: 2110 nM
[29]
  GI50: 1160 nM
[30]; [41]
  GI50: 170 nM
[30]; non-small cell lung NCI-H522
  GI50: 170 nM
[31]
  GI50: 1640 nM
[32]
  GI50: 190 nM
[33]
  GI50: 1510 nM
[34]
  GI50: 1520 nM
[35]
  LC50: 11 µM
  Log10 GI50 (concentration in mol/L): −6.07 mol/L
[36]
  GI50: 1100 nM
[37]
  GI50: 920 nM
[38]; Colon HCT-116, 48 h exposure
  GI50: 380 nM
[38]; colon cancer HCT-116
  GI50: 380 nM
[39]
  CC50: 2.4 µM
  Log10 GI50 (concentration in mol/L): −6.51 mol/L

## COc1cc2c(cc1OCCCCN1CCN(C(=S)SCCC(C#N)(c3ccccc3)c3ccccc3)CC1)N=C[C@@H]1CCCN1C2=O [Compound 12c, 3-cyano-3,3-diphenylpropyl 4-(4-[(11aS)-7-(methyloxy)-5-oxo-2,3,5,11a-tetrahydro-1H-benzo[e]pyrrolo[1,2-a][1,4]diazepin-8-yl]oxybutyl)hexahydro-1-pyrazinecarbodithioate]
[1]; Leukemia MOLT-4, 48 h exposure
  GI50: 350 nM
[2]
  Log10GI50 mean graph midpoint (MG_MID): −5.98
  Log10LC50 mean graph midpoint (MG_MID): −4.48
  Log10TGI mean graph midpoint (MG_MID): −5.28
[3]
  Log10 GI50 (concentration in mol/L): −5.84 mol/L
  LC50: 7.59 µM
[4]; Ovarian OVCAR-8, 48 h exposure
  GI50: 1590 nM
[5]
  GI50: 1970 nM
[6]
  GI50: 1410 nM
[7]
  GI50: 1640 nM
[8]
  GI50: 1390 nM
[9]
  GI50: 530 nM
[10]
  GI50: 1610 nM
[11]
  GI50: 1110 nM
[12]
  GI50: 2470 nM
[13]
  GI50: 1110 nM
[14]
  GI50: 1130 nM
[15]
  GI50: 1670 nM
[16]
  LC50 (concentration causing 50% lethality): 15.1 µM
  Log10 GI50 (concentration in mol/L): −6.05 mol/L
[17]; Breast MCF7, 48 h exposure
  GI50: 430 nM
[18]
  Log10 GI50 (concentration in mol/L): −5.93 mol/L
  LC50: 72.4 µM
[19]
  GI50: 1160 nM
[20]; Colon SW-620, 48 h exposure
  GI50: 1120 nM
[21]
  GI50: 490 nM
[22]
  GI50: 1400 nM
[23]
  GI50: 1190 nM
[24]; [40]
  GI50: 490 nM
[25]
  GI50: 1880 nM
[26]; CNS SF-268, 48 h exposure
  GI50: 1230 nM
[27]
  GI50: 590 nM
[28]
  GI50: 1820 nM
[29]
  GI50: 1040 nM
[30]; [41]
  GI50: 190 nM
[31]
  GI50: 1570 nM
[32]
  GI50: 410 nM
[33]
  GI50: 1260 nM
[34]
  GI50: 1750 nM
[35]
  LC50: 38.9 µM
  Log10 GI50 (concentration in mol/L): −5.97 mol/L
[36]
  GI50: 590 nM
[37]
  GI50: 1420 nM
[38]; Colon HCT-116, 48 h exposure
  GI50: 540 nM
[39]
  CC50: 7.24 µM
  Log10 GI50 (concentration in mol/L): −5.99 mol/L
